# From article PMC6450877, “A revised biosynthetic pathway for the cofactor F420 in prokaryotes” (Nature Communications, 2019)
# Experiments:
# Mtb-FbiA [1] = target: T1, Mtb-FbiA (Mycobacterium tuberculosis, UniProt P9WP81)
# Mtb-FbiD [2] = target: T2, Mtb-FbiD (Mycobacterium tuberculosis, UniProt P9WP83)
# Mtb-FbiB [3] = target: T3, Mtb-FbiB (Mycobacterium tuberculosis, UniProt P9WP79)
# Mj-CofC = target: T4, Mj-CofC (Methanocaldococcus jannaschii, UniProt Q58297); assay: coupled HPLC-MS assay with Mtb-FbiA; type: biochemical; conditions: Mtb-FbiA present, 1 mM PEP, 2 mM GTP, 0.1 mM Fo, 5 mM MgCl2, pH 7.5, 37 °C
# T4 construct: synthetic ORF in pYUB28b, expressed in E. coli, Ni-NTA and SEC
# T4 sequence (Q58297 1-224): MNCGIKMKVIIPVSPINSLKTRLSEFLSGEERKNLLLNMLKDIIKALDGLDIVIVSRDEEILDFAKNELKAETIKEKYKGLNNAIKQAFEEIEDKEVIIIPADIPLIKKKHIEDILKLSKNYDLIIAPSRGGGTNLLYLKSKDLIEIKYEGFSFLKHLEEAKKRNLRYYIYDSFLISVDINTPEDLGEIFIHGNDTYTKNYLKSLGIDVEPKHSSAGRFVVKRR
# Mtb-FbiD [4] = target: T2, Mtb-FbiD; remark: listed apart in the source
# Mtb-FbiB [5] = target: T3, Mtb-FbiB; remark: listed apart in the source
# Mtb-FbiA [6] = target: T1, Mtb-FbiA; remark: listed apart in the source
# T3 sequence (P9WP79 whole entry): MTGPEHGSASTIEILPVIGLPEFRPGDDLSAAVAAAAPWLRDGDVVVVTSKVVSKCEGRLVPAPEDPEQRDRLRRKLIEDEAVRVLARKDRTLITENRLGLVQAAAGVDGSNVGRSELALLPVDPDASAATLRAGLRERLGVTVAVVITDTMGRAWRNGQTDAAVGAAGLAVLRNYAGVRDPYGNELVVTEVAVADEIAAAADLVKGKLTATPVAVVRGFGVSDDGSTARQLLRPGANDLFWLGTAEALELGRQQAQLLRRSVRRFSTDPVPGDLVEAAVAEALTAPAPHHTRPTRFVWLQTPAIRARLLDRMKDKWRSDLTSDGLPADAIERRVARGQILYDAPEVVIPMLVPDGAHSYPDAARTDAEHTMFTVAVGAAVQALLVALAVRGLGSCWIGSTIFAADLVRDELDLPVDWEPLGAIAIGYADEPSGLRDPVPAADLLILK
# T2 sequence (P9WP83 whole entry): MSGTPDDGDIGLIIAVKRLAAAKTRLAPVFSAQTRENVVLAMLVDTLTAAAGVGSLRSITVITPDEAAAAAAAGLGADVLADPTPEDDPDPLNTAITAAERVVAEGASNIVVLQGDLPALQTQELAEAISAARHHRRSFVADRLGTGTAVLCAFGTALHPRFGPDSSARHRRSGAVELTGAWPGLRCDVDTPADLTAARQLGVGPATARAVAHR
# T1 sequence (P9WP81 whole entry): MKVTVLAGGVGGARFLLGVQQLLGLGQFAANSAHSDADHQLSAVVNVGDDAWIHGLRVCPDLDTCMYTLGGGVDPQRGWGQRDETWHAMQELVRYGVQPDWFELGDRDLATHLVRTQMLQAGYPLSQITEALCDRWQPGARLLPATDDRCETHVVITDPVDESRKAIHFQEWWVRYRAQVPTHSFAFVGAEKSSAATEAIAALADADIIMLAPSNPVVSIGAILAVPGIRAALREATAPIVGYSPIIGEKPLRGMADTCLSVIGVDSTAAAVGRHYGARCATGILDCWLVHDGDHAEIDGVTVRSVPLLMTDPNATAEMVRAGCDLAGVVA
smiles,measurement,setting,value
"O=c1nc2n(C[C@H](O)[C@H](O)[C@H](O)CO)c3cc(O)ccc3cc-2c(=O)[nH]1 [Fo, 7,8-didemethyl-8-hydroxy-5-deazariboflavin]",coupled HPLC-MS assay with FbiD or CofC,Mtb-FbiA [1],"when these enzymes were incubated with PEP, GTP (or ATP), and Fo"
"Nc1nc2c(ncn2[C@@H]2O[C@H](COP(=O)(O)OP(=O)(O)OP(=O)(O)O)[C@@H](O)[C@H]2O)c(=O)[nH]1 [GTP, guanosine-5ʹ-triphosphate]",coupled HPLC-MS assay with FbiA,Mtb-FbiD [2],Mtb-FbiD exclusively utilizes GTP to produce dehydro-F420-0
N[C@@H](CCC(=O)O)C(=O)O [L-glutamate],"coupled FbiD:FbiA:FbiB assay, LC-MS",Mtb-FbiB [3],Mtb-FbiB was observed to catalyze the addition of L-glutamate residues to dehydro-F420-0
"C=C(OP(=O)(O)O)C(=O)O [PEP, phosphoenolpyruvate]",coupled HPLC-MS assay with Mtb-FbiA,Mj-CofC,both Mtb-FbiD and CofC from Methanocaldococcus jannaschii (Mj-CofC) enzymes use PEP to produce dehydro-F420-0
same,"X-ray crystal structure, soak, 2.18 Å",Mtb-FbiD [4],We also soaked PEP into pre-formed FbiD crystals to obtain an FbiD-PEP complex
C=C(OP(=O)(O)OC[C@@H](O)[C@@H](O)[C@@H](O)Cn1c2nc(=O)[nH]c(=O)c-2cc2ccc(O)cc21)C(=O)O [dehydro-F420-0],"coupled FbiD:FbiA:FbiB assay with Fre/FMNH2, MS/MS",Mtb-FbiB [5],dehydro-F420-0 is a bona fide metabolic intermediate that can be converted to mature F420 by FbiB
same,"coupled HPLC assay, MS/MS",Mtb-FbiA [6],The discovery of dehydro-F420-0 as the product of FbiD:FbiA activity in mycobacteria
